According to US9708314B2, “Heterocyclic amide compound” (NISSAN CHEMICAL INDUSTRIES, LTD., priority 2013, dated 2017):

Legend:
Assay type in all cases: in vivo
Apera spica-venti. = assay: Test Example 4: herbicidal effect by application to foliage (diluvial soil, plastic box); details: Application herbicide amount 320 g/ha
In short: (§1)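 Seeds sown in sterilized diluvial soil, covered ~1.5 cm, grown 14 days in greenhouse at 25° C. to 30° C. Emulsion formulation diluted in water to set rate (g/ha) and sprayed onto stems and leaves. Effect scored visually 3 weeks later on 0–5 scale (5 = ≥90% herbicidal ratio, 0 = ≤5%).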

Galium spurium = assay: as above; details: Application herbicide amount 320 g/ha
In short: as §1

Setaria viridis = assay: as above; details: Application herbicide amount 320 g/ha
In short: as §1

Chenopodium album = assay: as above; details: Application herbicide amount 320 g/ha
In short: as §1

[1] = tested on: Echinochloa crus-galli var. crus-galli; assay: as above; details: Application herbicide amount 320 g/ha
In short: as §1

Alopecurus myosuroides = assay: as above; details: Application herbicide amount 320 g/ha
In short: as §1

Digitaria ciliaris = assay: as above; details: Application herbicide amount 320 g/ha
In short: as §1

Avena fatua = assay: as above; details: Application herbicide amount 320 g/ha
In short: as §1

Lolium multiflorum Lam. = assay: as above; details: Application herbicide amount 320 g/ha
In short: as §1

Veronica persica = assay: as above; details: Application herbicide amount 320 g/ha
In short: as §1

Abutilon theophrasti = assay: as above; details: Application herbicide amount 320 g/ha
In short: as §1

Monochoria vaginalis = assay: Test Example 1: herbicidal activity, application before weed generation in submerged conditions; details: Application herbicide amount 320 g/ha; Seventeenth Table
In short: (§2)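 Pre-emergence water-surface application under 4 cm flooding, same day as sowing, with rice transplanted at 2.5 leaf stage. Dose given as g/ha. Plants grown at 25° C. to 30° C. and rated three weeks later on a 0 (≤5%) to 5 (≥90%) herbicidal-ratio scale.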

Scirpus juncoides = assay: as above; details: Application herbicide amount 320 g/ha; Seventeenth Table
In short: as §2

[2] = tested on: Echinochloa oryzacola Vasing.; assay: as above; details: Application herbicide amount 320 g/ha; Seventeenth Table
In short: as §2

[3] = tested on: Beta vulgaris ssp. vulgaris; assay: Test Example 4: effect on crop by application to foliage (diluvial soil, plastic box); details: Application herbicide amount 320 g/ha; effect on crop
In short: as §1

Brassica campestris L. = assay: as above; details: Application herbicide amount 320 g/ha; effect on crop
In short: as §1

[4] = tested on: directly sowed Oryza sativa; assay: as above; details: Application herbicide amount 320 g/ha; effect on crop
In short: as §1

Glycine max = assay: as above; details: Application herbicide amount 320 g/ha; effect on crop
In short: as §1

Triticum aestivum = assay: as above; details: Application herbicide amount 320 g/ha; effect on crop
In short: as §1

Zea mays = assay: as above; details: Application herbicide amount 320 g/ha; effect on crop
In short: as §1

| SMILES | L (Apera spica-venti.) | Q (Galium spurium) | G (Setaria viridis) | O (Chenopodium album) | H [1] | J (Alopecurus myosuroides) | F (Digitaria ciliaris) | I (Avena fatua) | K (Lolium multiflorum Lam.) | R (Veronica persica) | M (Abutilon theophrasti) | C: Monochoria vaginalis (herbicidal effect grade) (Monochoria vaginalis) | B: Scirpus juncoides (herbicidal effect grade) (Scirpus juncoides) | A: Echinochloa oryzicola Vasing. (herbicidal effect grade) [2] | f [3] | g (Brassica campestris L.) | d [4] | c (Glycine max) | e (Triticum aestivum) | b (Zea mays) |
| --- | --- | --- | --- | --- | --- | --- | --- | --- | --- | --- | --- | --- | --- | --- | --- | --- | --- | --- | --- | --- |
| Cc1nnc(NC(=O)c2ccc(C(F)(F)F)n3c(-c4cc5ccccc5n4C)nnc23)o1 [1-059] | 0 (Herbicidal ratio of 5% or less (almost no effect)) | 0 (Herbicidal ratio of 5% or less (almost no effect)) | 0 (Herbicidal ratio of 5% or less (almost no effect)) | 5 (Herbicidal ratio of 90% or more (almost completely withered)) | 2 (Herbicidal ratio of 20% or more and less than 40%) | 0 (Herbicidal ratio of 5% or less (almost no effect)) | 0 (Herbicidal ratio of 5% or less (almost no effect)) | 0 (Herbicidal ratio of 5% or less (almost no effect)) | 0 (Herbicidal ratio of 5% or less (almost no effect)) | 2 (Herbicidal ratio of 20% or more and less than 40%) | 4 (Herbicidal ratio of 70% or more and less than 90%) | 2 (Herbicidal ratio of 20% or more and less than 40%) | 3 (Herbicidal ratio of 40% or more and less than 70%) | 2 (Herbicidal ratio of 20% or more and less than 40%) | 0 (Herbicidal ratio of 5% or less (almost no effect)) | 0 (Herbicidal ratio of 5% or less (almost no effect)) | 0 (Herbicidal ratio of 5% or less (almost no effect)) | 0 (Herbicidal ratio of 5% or less (almost no effect)) | 0 (Herbicidal ratio of 5% or less (almost no effect)) | 0 (Herbicidal ratio of 5% or less (almost no effect)) |
| COCCOC(=O)Cc1nnc2c(C(=O)Nc3nnc(C)o3)ccc(C(F)(F)F)n12 [1-060] | 1 (Herbicidal ratio of 5% or more and less than 20%) | 3 (Herbicidal ratio of 40% or more and less than 70%) | 3 (Herbicidal ratio of 40% or more and less than 70%) | 5 (Herbicidal ratio of 90% or more (almost completely withered)) | 5 (Herbicidal ratio of 90% or more (almost completely withered)) | 2 (Herbicidal ratio of 20% or more and less than 40%) | 5 (Herbicidal ratio of 90% or more (almost completely withered)) | 3 (Herbicidal ratio of 40% or more and less than 70%) | 2 (Herbicidal ratio of 20% or more and less than 40%) | 5 (Herbicidal ratio of 90% or more (almost completely withered)) | 4 (Herbicidal ratio of 70% or more and less than 90%) | 3 (Herbicidal ratio of 40% or more and less than 70%) | 4 (Herbicidal ratio of 70% or more and less than 90%) | 4 (Herbicidal ratio of 70% or more and less than 90%) | 5 (Herbicidal ratio of 90% or more (almost completely withered)) | 4 (Herbicidal ratio of 70% or more and less than 90%) | 4 (Herbicidal ratio of 70% or more and less than 90%) | 0 (Herbicidal ratio of 5% or less (almost no effect)) | 3 (Herbicidal ratio of 40% or more and less than 70%) | 3 (Herbicidal ratio of 40% or more and less than 70%) |
| CC(=O)OCc1nnc2c(C(=O)Nc3nnc(C)o3)ccc(C(F)(F)F)n12 [1-062] | 1 (Herbicidal ratio of 5% or more and less than 20%) | 4 (Herbicidal ratio of 70% or more and less than 90%) | 3 (Herbicidal ratio of 40% or more and less than 70%) | 5 (Herbicidal ratio of 90% or more (almost completely withered)) | 5 (Herbicidal ratio of 90% or more (almost completely withered)) | 1 (Herbicidal ratio of 5% or more and less than 20%) | 5 (Herbicidal ratio of 90% or more (almost completely withered)) | 3 (Herbicidal ratio of 40% or more and less than 70%) | 0 (Herbicidal ratio of 5% or less (almost no effect)) | 4 (Herbicidal ratio of 70% or more and less than 90%) | 5 (Herbicidal ratio of 90% or more (almost completely withered)) | 1 (Herbicidal ratio of 5% or more and less than 20%) | 2 (Herbicidal ratio of 20% or more and less than 40%) | 3 (Herbicidal ratio of 40% or more and less than 70%) | 4 (Herbicidal ratio of 70% or more and less than 90%) | 4 (Herbicidal ratio of 70% or more and less than 90%) | 3 (Herbicidal ratio of 40% or more and less than 70%) | 0 (Herbicidal ratio of 5% or less (almost no effect)) | 2 (Herbicidal ratio of 20% or more and less than 40%) | 3 (Herbicidal ratio of 40% or more and less than 70%) |
| COCCSc1nnc2c(C(=O)Nc3nnc(C)o3)ccc(C(F)(F)F)n12 [1-063] | 3 (Herbicidal ratio of 40% or more and less than 70%) | 3 (Herbicidal ratio of 40% or more and less than 70%) | 5 (Herbicidal ratio of 90% or more (almost completely withered)) | 5 (Herbicidal ratio of 90% or more (almost completely withered)) | 5 (Herbicidal ratio of 90% or more (almost completely withered)) | 2 (Herbicidal ratio of 20% or more and less than 40%) | 5 (Herbicidal ratio of 90% or more (almost completely withered)) | 2 (Herbicidal ratio of 20% or more and less than 40%) | 2 (Herbicidal ratio of 20% or more and less than 40%) | 5 (Herbicidal ratio of 90% or more (almost completely withered)) | 4 (Herbicidal ratio of 70% or more and less than 90%) | 3 (Herbicidal ratio of 40% or more and less than 70%) | 4 (Herbicidal ratio of 70% or more and less than 90%) | 5 (Herbicidal ratio of 90% or more (almost completely withered)) | 5 (Herbicidal ratio of 90% or more (almost completely withered)) | 3 (Herbicidal ratio of 40% or more and less than 70%) | 4 (Herbicidal ratio of 70% or more and less than 90%) | 3 (Herbicidal ratio of 40% or more and less than 70%) | 2 (Herbicidal ratio of 20% or more and less than 40%) | 0 (Herbicidal ratio of 5% or less (almost no effect)) |
| C=CCSc1nnc2c(C(=O)Nc3nnc(C)o3)ccc(C(F)(F)F)n12 [1-064] | 1 (Herbicidal ratio of 5% or more and less than 20%) | 3 (Herbicidal ratio of 40% or more and less than 70%) | 4 (Herbicidal ratio of 70% or more and less than 90%) | – | 5 (Herbicidal ratio of 90% or more (almost completely withered)) | 1 (Herbicidal ratio of 5% or more and less than 20%) | 5 (Herbicidal ratio of 90% or more (almost completely withered)) | 1 (Herbicidal ratio of 5% or more and less than 20%) | 1 (Herbicidal ratio of 5% or more and less than 20%) | 3 (Herbicidal ratio of 40% or more and less than 70%) | 3 (Herbicidal ratio of 40% or more and less than 70%) | 3 (Herbicidal ratio of 40% or more and less than 70%) | 4 (Herbicidal ratio of 70% or more and less than 90%) | 5 (Herbicidal ratio of 90% or more (almost completely withered)) | 4 (Herbicidal ratio of 70% or more and less than 90%) | 3 (Herbicidal ratio of 40% or more and less than 70%) | 3 (Herbicidal ratio of 40% or more and less than 70%) | 0 (Herbicidal ratio of 5% or less (almost no effect)) | 0 (Herbicidal ratio of 5% or less (almost no effect)) | 0 (Herbicidal ratio of 5% or less (almost no effect)) |
